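Five concentrations, 48 hours, 96-well plates. The concentration for 50% growth inhibition is given as GI50.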 The source made the active and inactive calls. Rule as the data show it: active = GI50 up to about 1.1 µM and inactive = higher.
Experiments:
Assay in all cases: NCI tumour cell line growth inhibition, 48 h
NCI-H460 = system: NCI-H460
UO-31 = system: UO-31
T47D = system: T47D
HOP-92 = system: HOP-92
COLO 205 = system: COLO 205
ACHN = system: ACHN
786-0 = system: 786-0
SF-295 = system: SF-295
BT-549 = system: BT-549
UACC-62 = system: UACC-62
OVCAR-8 = system: OVCAR-8
SNB-19 = system: SNB-19
A549 = system: A549
K562 = system: K562
SK-MEL-2 = system: SK-MEL-2
NCI-H226 = system: NCI-H226
HCT-116 = system: HCT-116
TK-10 = system: TK-10
SK-MEL-28 = system: SK-MEL-28

COc1ccc(C2C3COc4ccccc4C3=NN2c2ccccc2)cc1 (configuration not stated)
GI50 (NCI-H460): 94.4 µM (inactive)
GI50 (UO-31): > 100 µM (inactive)
GI50 (T47D): 48.8 µM (inactive)
GI50 (HOP-92): > 100 µM (inactive)
GI50 (COLO 205): > 100 µM (inactive)
GI50 (ACHN): > 100 µM (inactive)
GI50 (786-0): > 100 µM (inactive)
GI50 (SF-295): > 100 µM (inactive)
GI50 (BT-549): > 100 µM (inactive)
GI50 (UACC-62): > 100 µM (inactive)
GI50 (OVCAR-8): > 100 µM (inactive)
GI50 (SNB-19): > 100 µM (inactive)
GI50 (A549): > 100 µM (inactive)
GI50 (K562): > 100 µM (inactive)
GI50 (SK-MEL-2): > 100 µM (inactive)
GI50 (NCI-H226): > 100 µM (inactive)
GI50 (HCT-116): > 100 µM (inactive)
GI50 (TK-10): > 100 µM (inactive)

Cc1ccc(NC(=O)CSc2nc(C)nc3c2sc(=S)n3-c2ccccc2)cc1
GI50 (NCI-H460): 5.48 µM (inactive)
GI50 (T47D): > 10 µM (inactive)
GI50 (HOP-92): 2.71 µM (inactive)
GI50 (COLO 205): 6.15 µM (inactive)
GI50 (ACHN): 8.77 µM (inactive)
GI50 (786-0): 2.37 µM (inactive)
GI50 (SF-295): 5 µM (inactive)
GI50 (BT-549): 4.09 µM (inactive)
GI50 (UACC-62): > 10 µM (inactive)
GI50 (OVCAR-8): 6.76 µM (inactive)
GI50 (SNB-19): 5.37 µM (inactive)
GI50 (A549): > 10 µM (inactive)
GI50 (K562): > 10 µM (inactive)
GI50 (SK-MEL-2): > 10 µM (inactive)
GI50 (NCI-H226): 3.33 µM (inactive)
GI50 (HCT-116): 4.24 µM (inactive)
GI50 (SK-MEL-28): > 10 µM (inactive)
GI50 (TK-10): > 10 µM (inactive)

Cc1ccc2c(c1)c1ccc3c(c1n2C)C(=O)C=CC3=O
GI50 (NCI-H460): > 10 µM (inactive)
GI50 (UO-31): 1.41 µM (inactive)
GI50 (T47D): 1.63 µM (inactive)
GI50 (HOP-92): 2.03 µM (inactive)
GI50 (COLO 205): 1.26 µM (inactive)
GI50 (ACHN): 1.56 µM (inactive)
GI50 (786-0): 1.95 µM (inactive)
GI50 (SF-295): > 10 µM (inactive)
GI50 (BT-549): 1.36 µM (inactive)
GI50 (UACC-62): 3.01 µM (inactive)
GI50 (OVCAR-8): 2.18 µM (inactive)
GI50 (SNB-19): > 10 µM (inactive)
GI50 (A549): > 10 µM (inactive)
GI50 (K562): 0.468 µM (active)
GI50 (SK-MEL-2): 7.48 µM (inactive)
GI50 (NCI-H226): > 6.85 µM (inactive)
GI50 (HCT-116): 1.51 µM (inactive)
GI50 (SK-MEL-28): 2.18 µM (inactive)
GI50 (TK-10): 2 µM (inactive)

O=C1N/C(=N/N=C\c2ccccc2)N/C1=C/c1ccccc1
GI50 (NCI-H460): 20.6 µM (inactive)
GI50 (UO-31): 41.9 µM (inactive)
GI50 (T47D): 30.3 µM (inactive)
GI50 (HOP-92): 22.2 µM (inactive)
GI50 (COLO 205): 68.5 µM (inactive)
GI50 (ACHN): 13.2 µM (inactive)
GI50 (786-0): 33.6 µM (inactive)
GI50 (SF-295): 38.9 µM (inactive)
GI50 (BT-549): 22.9 µM (inactive)
GI50 (OVCAR-8): 26.2 µM (inactive)
GI50 (SNB-19): 21.6 µM (inactive)
GI50 (A549): 35.7 µM (inactive)
GI50 (K562): 21.3 µM (inactive)
GI50 (SK-MEL-2): 27.6 µM (inactive)
GI50 (NCI-H226): 14.8 µM (inactive)
GI50 (HCT-116): 34.6 µM (inactive)
GI50 (SK-MEL-28): 85.1 µM (inactive)
GI50 (TK-10): 38.5 µM (inactive)

O=C(c1ccccn1)C1(N2CCCCC2)CCCCC1
GI50 (UO-31): > 100 µM (inactive)
GI50 (T47D): 46 µM (inactive)
GI50 (HOP-92): 9.75 µM (inactive)
GI50 (COLO 205): > 100 µM (inactive)
GI50 (ACHN): > 100 µM (inactive)
GI50 (786-0): > 100 µM (inactive)
GI50 (SF-295): > 100 µM (inactive)
GI50 (BT-549): > 100 µM (inactive)
GI50 (UACC-62): > 100 µM (inactive)
GI50 (OVCAR-8): > 100 µM (inactive)
GI50 (SNB-19): > 100 µM (inactive)
GI50 (A549): > 100 µM (inactive)
GI50 (K562): > 100 µM (inactive)
GI50 (SK-MEL-2): > 100 µM (inactive)
GI50 (NCI-H226): > 100 µM (inactive)
GI50 (HCT-116): > 100 µM (inactive)
GI50 (SK-MEL-28): > 100 µM (inactive)
GI50 (TK-10): > 100 µM (inactive)

O=S(=O)(SC1=NCCN1)c1ccc2ccccc2c1
GI50 (NCI-H460): 21.6 µM (inactive)
GI50 (UO-31): 29.4 µM (inactive)
GI50 (T47D): 81.7 µM (inactive)
GI50 (HOP-92): 51.1 µM (inactive)
GI50 (COLO 205): 18.7 µM (inactive)
GI50 (ACHN): 39.5 µM (inactive)
GI50 (786-0): 28.1 µM (inactive)
GI50 (SF-295): 24.8 µM (inactive)
GI50 (BT-549): 24.5 µM (inactive)
GI50 (UACC-62): 30.1 µM (inactive)
GI50 (OVCAR-8): 20.7 µM (inactive)
GI50 (SNB-19): 20.2 µM (inactive)
GI50 (A549): 26.8 µM (inactive)
GI50 (K562): 22.7 µM (inactive)
GI50 (SK-MEL-2): 24.8 µM (inactive)
GI50 (NCI-H226): 28.9 µM (inactive)
GI50 (HCT-116): 22.5 µM (inactive)
GI50 (SK-MEL-28): 34.8 µM (inactive)
GI50 (TK-10): 89.1 µM (inactive)

Cc1cc(C)c(S(=O)(=O)N(CCCN)OCCON(CCCN)S(=O)(=O)c2c(C)cc(C)cc2C)c(C)c1
GI50 (NCI-H460): 2.67 µM (inactive)
GI50 (UO-31): 23.3 µM (inactive)
GI50 (T47D): 4.92 µM (inactive)
GI50 (HOP-92): 6.24 µM (inactive)
GI50 (COLO 205): 2.66 µM (inactive)
GI50 (ACHN): 23.7 µM (inactive)
GI50 (786-0): 3.93 µM (inactive)
GI50 (SF-295): 20.2 µM (inactive)
GI50 (BT-549): 7.78 µM (inactive)
GI50 (UACC-62): 4.19 µM (inactive)
GI50 (OVCAR-8): 12.6 µM (inactive)
GI50 (SNB-19): 2.08 µM (inactive)
GI50 (A549): 3.31 µM (inactive)
GI50 (K562): 2.96 µM (inactive)
GI50 (SK-MEL-2): 1.64 µM (inactive)
GI50 (NCI-H226): 4.44 µM (inactive)
GI50 (HCT-116): 2.24 µM (inactive)
GI50 (SK-MEL-28): 5.26 µM (inactive)
GI50 (TK-10): 8 µM (inactive)

NC(=O)N/N=C(/CC1C(=O)Oc2ccccc21)c1ccccc1O (configuration not stated)
GI50 (NCI-H460): 39.4 µM (inactive)
GI50 (UO-31): 41.1 µM (inactive)
GI50 (T47D): 19.5 µM (inactive)
GI50 (HOP-92): 29.8 µM (inactive)
GI50 (COLO 205): 98.2 µM (inactive)
GI50 (ACHN): 39.7 µM (inactive)
GI50 (786-0): 33.4 µM (inactive)
GI50 (SF-295): 42.5 µM (inactive)
GI50 (BT-549): 24.2 µM (inactive)
GI50 (UACC-62): 19.1 µM (inactive)
GI50 (OVCAR-8): 28.6 µM (inactive)
GI50 (SNB-19): 60 µM (inactive)
GI50 (A549): > 100 µM (inactive)
GI50 (K562): 30.8 µM (inactive)
GI50 (SK-MEL-2): > 100 µM (inactive)
GI50 (NCI-H226): 24.4 µM (inactive)
GI50 (HCT-116): 29.6 µM (inactive)
GI50 (SK-MEL-28): 48.3 µM (inactive)
GI50 (TK-10): 53.8 µM (inactive)

COC(=O)C(C(=O)C(=O)Nc1ccccc1C#N)c1nc2ccc([N+](=O)[O-])cc2nc1O (configuration not stated)
GI50 (NCI-H460): > 100 µM (inactive)
GI50 (UO-31): > 100 µM (inactive)
GI50 (T47D): > 100 µM (inactive)
GI50 (HOP-92): > 100 µM (inactive)
GI50 (COLO 205): > 100 µM (inactive)
GI50 (ACHN): > 100 µM (inactive)
GI50 (786-0): > 100 µM (inactive)
GI50 (SF-295): > 100 µM (inactive)
GI50 (BT-549): > 100 µM (inactive)
GI50 (UACC-62): > 100 µM (inactive)
GI50 (OVCAR-8): > 100 µM (inactive)
GI50 (SNB-19): > 100 µM (inactive)
GI50 (A549): > 100 µM (inactive)
GI50 (SK-MEL-2): > 100 µM (inactive)
GI50 (NCI-H226): > 100 µM (inactive)
GI50 (HCT-116): > 100 µM (inactive)
GI50 (SK-MEL-28): > 100 µM (inactive)
GI50 (TK-10): > 100 µM (inactive)

CC(=O)CC(=O)N1CCSC1=S
GI50 (NCI-H460): > 10 µM (inactive)
GI50 (UO-31): > 10 µM (inactive)
GI50 (T47D): 6.67 µM (inactive)
GI50 (HOP-92): > 10 µM (inactive)
GI50 (ACHN): > 10 µM (inactive)
GI50 (786-0): > 10 µM (inactive)
GI50 (SF-295): > 10 µM (inactive)
GI50 (BT-549): > 10 µM (inactive)
GI50 (UACC-62): > 10 µM (inactive)
GI50 (OVCAR-8): > 10 µM (inactive)
GI50 (SNB-19): > 10 µM (inactive)
GI50 (A549): > 10 µM (inactive)
GI50 (K562): > 10 µM (inactive)
GI50 (SK-MEL-2): > 10 µM (inactive)
GI50 (NCI-H226): > 10 µM (inactive)
GI50 (HCT-116): > 10 µM (inactive)
GI50 (SK-MEL-28): > 10 µM (inactive)
GI50 (TK-10): > 10 µM (inactive)

COC1CC(N)(c2ccccc2)C(O)C(C)O1 (configuration not stated)
GI50 (NCI-H460): > 100 µM (inactive)
GI50 (UO-31): > 100 µM (inactive)
GI50 (T47D): > 100 µM (inactive)
GI50 (HOP-92): > 100 µM (inactive)
GI50 (COLO 205): > 100 µM (inactive)
GI50 (ACHN): > 100 µM (inactive)
GI50 (786-0): > 100 µM (inactive)
GI50 (SF-295): > 100 µM (inactive)
GI50 (BT-549): > 100 µM (inactive)
GI50 (UACC-62): > 100 µM (inactive)
GI50 (OVCAR-8): > 100 µM (inactive)
GI50 (SNB-19): > 100 µM (inactive)
GI50 (A549): > 100 µM (inactive)
GI50 (K562): > 100 µM (inactive)
GI50 (SK-MEL-2): > 100 µM (inactive)
GI50 (NCI-H226): > 100 µM (inactive)
GI50 (HCT-116): > 100 µM (inactive)
GI50 (SK-MEL-28): > 100 µM (inactive)
